Laboratory results from ChEMBL document CHEMBL1154521, “2,3-Dihydrowithaferin A-3beta-O-sulfate, a new potential prodrug of withaferin A from aeroponically grown Withania somnifera” (2009).
The source made the active and inactive calls. The rule behind the calls is not given here.

How the values were obtained:
[1] = tested on: WI-38; test: Induction of F-actin aggregation in human WI38 cells after 24 hrs; format: functional, cell-based
[2] = Growth inhibition of human NCI60 cells; format: functional
[3] = tested on: MCF7; test: Cytotoxicity against human MCF7 cells by MTT assay; format: functional
[4] = tested on: MCF7; test: Cytotoxicity against human MCF7 cells after 72 hrs by MTT assay; format: functional, cell-based
[5] = tested on: WI-38; test: Induction of F-actin aggregation in human WI38 cells after 4 hrs; format: functional, cell-based
[6] = biological target: T1, Heat shock factor protein 1 (Mus musculus) (UniProt P38532); test: Induction of HSF1-mediated heat-shock protein 72 expression in mouse fibroblast with plasmid EGFP at 2 uM after overnight incubation by micro plate fluorometer
T1 sequence (whole entry): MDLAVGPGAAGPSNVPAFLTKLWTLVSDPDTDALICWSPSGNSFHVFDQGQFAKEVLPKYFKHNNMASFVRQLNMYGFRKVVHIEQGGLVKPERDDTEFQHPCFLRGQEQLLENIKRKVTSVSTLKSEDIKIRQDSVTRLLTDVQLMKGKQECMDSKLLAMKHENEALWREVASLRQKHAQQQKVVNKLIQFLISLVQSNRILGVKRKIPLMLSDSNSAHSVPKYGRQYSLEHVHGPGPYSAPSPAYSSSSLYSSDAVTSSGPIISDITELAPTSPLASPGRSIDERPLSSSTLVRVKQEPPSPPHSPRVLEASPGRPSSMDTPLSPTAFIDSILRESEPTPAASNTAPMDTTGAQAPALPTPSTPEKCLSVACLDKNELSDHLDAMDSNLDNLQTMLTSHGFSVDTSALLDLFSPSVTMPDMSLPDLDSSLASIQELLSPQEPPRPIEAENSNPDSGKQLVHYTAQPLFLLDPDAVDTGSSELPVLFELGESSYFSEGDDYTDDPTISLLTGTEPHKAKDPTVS

| Activity [6] | Structure (SMILES) | Activity [1] | GI50 [2] | inhibition (INH) [3] | Activity [4] | Activity [5] |
| --- | --- | --- | --- | --- | --- | --- |
|  | CC1=C(CO)C(=O)O[C@@H]([C@@H](C)[C@H]2CC[C@H]3[C@@H]4C[C@H]5O[C@]56[C@@H](O)[C@@H](OS(=O)(=O)O)CC(=O)[C@]6(C)[C@H]4CC[C@]23C)C1 | inactive |  |  |  |  |
| Active | CC1=C(CO)C(=O)O[C@@H]([C@@H](C)[C@H]2CC[C@H]3[C@@H]4C[C@H]5O[C@]56[C@@H](O)C=CC(=O)[C@]6(C)[C@H]4CC[C@]23C)C1 [WITHAFERIN A] |  | 620 nM | 50% | Active | Active |
